Experiments:
Assay in all cases: relative viability (nuclei count vs DMSO), 5 days (fraction); higher = more cells survive
DM3189 + Trametinib = compound: C1CN(CCN1)C2=CC=C(C=C2)C3=CN4C(=C(C=N4)C5=CC=NC6=CC=CC=C56)N=C3 [DM3189] + CC(=O)Nc1cccc(-n2c(=O)n(C3CC3)c(=O)c3c(Nc4ccc(I)cc4F)n(C)c(=O)c(C)c32)c1 [Trametinib] (partner 0.02 µM)
Method in brief: (§1)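 Relative viability divides the nuclei count in treated wells by that in vehicle wells. Lung cancer cell lines were seeded in 1536-well plates, dosed by pin tool the next day, and fixed and stained after 5 days in one step with final 0.05% Triton X-100, 1% formaldehyde and 1 ug/ml Hoechst. Dosing was a single drug or a fixed anchor-drug dose plus five library-drug doses (not always all listed) in √10 steps, and values are medians of duplicate plates imaged at 4×.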

DM3189 + Navitoclax = compound: C1CN(CCN1)C2=CC=C(C=C2)C3=CN4C(=C(C=N4)C5=CC=NC6=CC=CC=C56)N=C3 [DM3189] + CC1(C)CCC(c2ccc(Cl)cc2)=C(CN2CCN(c3ccc(C(=O)NS(=O)(=O)c4ccc(N[C@H](CCN5CCOCC5)CSc5ccccc5)c(S(=O)(=O)C(F)(F)F)c4)cc3)CC2)C1 [Navitoclax] (partner 0.5 µM)
Method in brief: as §1

DM3189 + OSI-027 = compound: C1CN(CCN1)C2=CC=C(C=C2)C3=CN4C(=C(C=N4)C5=CC=NC6=CC=CC=C56)N=C3 [DM3189] + COc1cccc2cc(-c3nc([C@H]4CC[C@H](C(=O)O)CC4)n4ncnc(N)c34)[nH]c12 [OSI-027] (partner 0.5 µM)
Method in brief: as §1

DM3189 + Tozasertib = compound: C1CN(CCN1)C2=CC=C(C=C2)C3=CN4C(=C(C=N4)C5=CC=NC6=CC=CC=C56)N=C3 [DM3189] + Cc1cc(Nc2cc(N3CCN(C)CC3)nc(Sc3ccc(NC(=O)C4CC4)cc3)n2)n[nH]1 [Tozasertib] (partner 0.1 µM)
Method in brief: as §1

DM3189 + Olaparib = compound: C1CN(CCN1)C2=CC=C(C=C2)C3=CN4C(=C(C=N4)C5=CC=NC6=CC=CC=C56)N=C3 [DM3189] + O=C(c1cc(Cc2n[nH]c(=O)c3ccccc23)ccc1F)N1CCN(C(=O)C2CC2)CC1 [Olaparib] (partner 8 µM)
Method in brief: as §1

| Cell Line | relative viability (DM3189 + Trametinib; first compound 0.08 µM) | relative viability (DM3189 + Trametinib; first compound 0.253 µM) | relative viability (DM3189 + Trametinib; first compound 0.8 µM) | relative viability (DM3189 + Trametinib; first compound 2.53 µM) | relative viability (DM3189 + Navitoclax; first compound 0.08 µM) | relative viability (DM3189 + Navitoclax; first compound 0.253 µM) | relative viability (DM3189 + Navitoclax; first compound 0.8 µM) | relative viability (DM3189 + Navitoclax; first compound 2.53 µM) | relative viability (DM3189 + OSI-027; first compound 0.08 µM) | relative viability (DM3189 + OSI-027; first compound 0.253 µM) | relative viability (DM3189 + OSI-027; first compound 2.53 µM) | relative viability (DM3189 + Tozasertib; first compound 0.08 µM) | relative viability (DM3189 + Tozasertib; first compound 0.253 µM) | relative viability (DM3189 + Tozasertib; first compound 2.53 µM) | relative viability (DM3189 + Olaparib; first compound 0.08 µM) | relative viability (DM3189 + Olaparib; first compound 0.253 µM) | relative viability (DM3189 + Olaparib; first compound 0.8 µM) | relative viability (DM3189 + Olaparib; first compound 2.53 µM) | relative viability (DM3189 + OSI-027; first compound 0.8 µM) | relative viability (DM3189 + Tozasertib; first compound 0.8 µM) |
| --- | --- | --- | --- | --- | --- | --- | --- | --- | --- | --- | --- | --- | --- | --- | --- | --- | --- | --- | --- | --- |
| HCC-366 | 0.414 | 0.362 | 0.352 | 0.432 | 0.955 | 1.06 | 0.842 | 1.04 | 0.888 | 0.856 | 0.808 | 0.133 | 0.0982 | 0.0984 | 0.312 | 0.325 | 0.311 | 0.416 | – | – |
| HCC-827 | 0.492 | 0.535 | 0.502 | 0.54 | 0.958 | 0.942 | 0.887 | 1.02 | 0.886 | 0.812 | 0.822 | 0.376 | 0.36 | 0.377 | 0.665 | 0.573 | 0.511 | 0.698 | 0.842 | 0.354 |
| HOP-62 | 0.421 | 0.509 | 0.475 | 0.51 | 1.09 | 0.994 | 0.989 | 1.17 | 1.02 | 0.852 | 0.871 | 0.31 | 0.347 | 0.356 | 0.347 | 0.547 | 0.167 | 0.404 | 0.817 | 0.389 |
| LC-2-ad | 0.938 | 0.901 | 0.875 | 0.919 | 0.59 | 0.532 | 0.435 | 0.358 | 0.801 | 0.784 | 0.87 | 0.461 | 0.396 | 0.482 | 0.713 | 0.66 | 0.652 | 0.747 | 0.726 | 0.474 |
| LCLC-97TM1 | 0.211 | 0.198 | 0.205 | 0.216 | 0.291 | 0.243 | 0.39 | 0.519 | 0.563 | 0.304 | 0.396 | 0.229 | 0.171 | 0.188 | 0.415 | 0.314 | 0.281 | 0.397 | 0.397 | 0.182 |
| LK-2 | 0.586 | 0.511 | 0.638 | 0.497 | 0.72 | 0.626 | 0.483 | 0.57 | 0.193 | 0.155 | 0.174 | 0.183 | 0.187 | 0.166 | 0.626 | 0.613 | 0.388 | 0.489 | 0.159 | 0.185 |
| LOU-NH91 | 0.846 | 0.793 | 0.685 | 0.765 | 0.762 | 0.688 | 0.523 | 0.607 | 0.869 | 0.719 | 0.801 | 0.7 | 0.696 | 0.637 | 0.921 | 0.896 | 0.76 | 0.92 | 0.681 | 0.659 |
| LU99A | 0.661 | 0.533 | – | 0.634 | 0.828 | 0.787 | – | 0.83 | 0.293 | 0.299 | 0.308 | 0.284 | 0.242 | 0.307 | 0.296 | 0.274 | – | 0.264 | – | – |
